Source: PubChem BioAssay AID2060624 (Molecular Pharmacology Branch, DTP, NCI, 2025)

System: 217524-143-R1-J4-PDC spheroids with HUVEC/MSC, viability
Experiment: Anticancer human tumor 217524-143-R1-J4-PDC patient-derived pancreatic carcinoma cell line growth inhibition [CLK]
Details: for IC50: curve of first compound; for viability, T/C: stronger effect = lower value
Outline: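 Multi-cell-type spheroids combined patient-derived tumor cells with HUVEC endothelial cells and human mesenchymal stem cells. Paired agents were dosed in half-log steps down from about clinical Cmax, or from 10 microM where Cmax was unknown.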
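Note: spheroids exposed to agents for seven days before reading.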
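Throughout, for viability, T/C: 100% = DMSO vehicle control viability.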

Q: Which results are given for `COc1ccc([C@@H](O)c2cc(-c3ncnc4cc(N5CCOCC5)ccc34)c(F)cc2Cl)nn1` + CNC(=O)c1ccc(Nc2nc(OC3CCCC3)c3c(-c4ccc5nc(C)oc5c4)c[nH]c3n2)c(OC)c1?
A: IC50 (second compound 0.0316 µM): 813 nM; IC50 (second compound 0.1 µM): < 31.6 nM; IC50 (second compound 0.316 µM): < 31.6 nM; IC50 (second compound 1 µM): < 31.6 nM; IC50 (second compound 3.16 µM): < 31.6 nM; IC50 (second compound 10 µM): < 31.6 nM; viability, T/C (second compound 0.0316 µM, first compound 0.0316 µM): 95.4%; viability, T/C (second compound 0.0316 µM, first compound 0.1 µM): 72%; viability, T/C (second compound 0.0316 µM, first compound 0.316 µM): 66%; viability, T/C (second compound 0.0316 µM, first compound 1 µM): 50.4%; viability, T/C (second compound 0.0316 µM, first compound 3.16 µM): 27.6%; viability, T/C (second compound 0.0316 µM, first compound 10 µM): 10.6%; viability, T/C (second compound 0.1 µM, first compound 0.0316 µM): 43.1%; viability, T/C (second compound 0.1 µM, first compound 0.1 µM): 34.6%; viability, T/C (second compound 0.1 µM, first compound 0.316 µM): 32%; viability, T/C (second compound 0.1 µM, first compound 1 µM): 27.9%; viability, T/C (second compound 0.1 µM, first compound 3.16 µM): 19.3%; viability, T/C (second compound 0.1 µM, first compound 10 µM): 9.43%; viability, T/C (second compound 0.316 µM, first compound 0.0316 µM): 39.8%; viability, T/C (second compound 0.316 µM, first compound 0.1 µM): 28.4%; viability, T/C (second compound 0.316 µM, first compound 0.316 µM): 27.4%; viability, T/C (second compound 0.316 µM, first compound 1 µM): 20.8%; viability, T/C (second compound 0.316 µM, first compound 3.16 µM): 13.3%; viability, T/C (second compound 0.316 µM, first compound 10 µM): 7.35%; viability, T/C (second compound 1 µM, first compound 0.0316 µM): 32%; viability, T/C (second compound 1 µM, first compound 0.1 µM): 22.9%; viability, T/C (second compound 1 µM, first compound 0.316 µM): 23.3%; viability, T/C (second compound 1 µM, first compound 1 µM): 13.6%; viability, T/C (second compound 1 µM, first compound 3.16 µM): 11.8%; viability, T/C (second compound 1 µM, first compound 10 µM): 5.29%; viability, T/C (second compound 3.16 µM, first compound 0.0316 µM): 25.6%; viability, T/C (second compound 3.16 µM, first compound 0.1 µM): 27%; viability, T/C (second compound 3.16 µM, first compound 0.316 µM): 20.2%; viability, T/C (second compound 3.16 µM, first compound 1 µM): 16.9%; viability, T/C (second compound 3.16 µM, first compound 3.16 µM): 10.3%; viability, T/C (second compound 3.16 µM, first compound 10 µM): 4.64%; viability, T/C (second compound 10 µM, first compound 0.0316 µM): 24.8%; viability, T/C (second compound 10 µM, first compound 0.1 µM): 23.6%; viability, T/C (second compound 10 µM, first compound 0.316 µM): 20.7%; viability, T/C (second compound 10 µM, first compound 1 µM): 13.8%; viability, T/C (second compound 10 µM, first compound 3.16 µM): 9.68%; viability, T/C (second compound 10 µM, first compound 10 µM): 5.01%
